# Experimental data reported in article PMC5823406, “Vehicle development, pharmacokinetics and toxicity of the anti-invasive agent 4-fluoro-3’,4’,5’-trimethoxychalcone in rodents” (PLoS ONE, 2018).
# System: ICR mice
# Assay: Single-dose PO MTD study
# Type: in vivo
# Details: for Necropsy: gross findings: 72 h post dosing; for Autonomic / Behavioral / Neurologic: first 60 min; for Weigt increase (%): over 72 h, average±SD
# Method: Male ICR mice (20–26 g), were obtained from BioLASCO Taiwan. Animals were kept in conventional cages with wood chip bedding. Space allocation for 3–5 animals was 30 x 19 x 13 cm. All animals were healthy at the start of the trial and maintained in a well-controlled temperature (20–24°C) and humidity (30%-70%) environment with 12 h light/dark cycles. Free access to a standard lab diet [MFG (Oriental Yeast Co., Ltd., Japan)] and autoclaved tap water were granted.
# A single PO and IP dose progression test was conducted in which animals were dosed at a minimum of 72- or 24-h intervals, respectively. C16 (vehicle: 10% Solutol HS-15 / 90% PEG 600) was administered by oral gavage at 10 mL/kg to randomly assigned groups of 2 male and 2 female mice, or by IP injection at 5 mL/kg to randomly assigned groups of 5 male mice. Animals received an initial dose of 10 mg/kg. If 50% of the animals survived for 72 h (PO) or 30 min (IP), the dose for the next cohort was increased. If one or more animals died, the dose for the next cohort was decreased. The next dose level was determined by the decision scheme in Fig 2.
# Body weights were recorded before dosing and at the 72- (PO) or 24-h (IP) time point. Gross necropsy was performed in all animals without tissue collection.
# dose was increased or decreased in each subsequent test round until the MTD was discovered. Gross necropsy was
# performed in all animals without tissue collection.
compound,measurement,setting,value
"COc1cc(C(=O)/C=C/c2ccc(F)cc2)cc(OC)c1OC [C16, 4-fluoro-3’,4’,5’-trimethoxychalcone]",tolerated dose,"ICR mice, PO oral gavage, single dose",10 to 300 mg/kg
same,Deaths,"PO 10 mg/kg, F",0/2
same,Necropsy: gross findings,"PO 10 mg/kg, F",none
same,Autonomic,"PO 10 mg/kg, F",none
same,Behavioral,"PO 10 mg/kg, F",none
same,Neurologic,"PO 10 mg/kg, F",none
same,Weigt increase (%),"PO 10 mg/kg, F",2±3%
same,Deaths,"PO 10 mg/kg, M",0/2
same,Necropsy: gross findings,"PO 10 mg/kg, M",none
same,Autonomic,"PO 10 mg/kg, M",none
same,Behavioral,"PO 10 mg/kg, M",none
same,Neurologic,"PO 10 mg/kg, M",none
same,Weigt increase (%),"PO 10 mg/kg, M",25±3%
same,Deaths,"PO 30 mg/kg, F",0/2
same,Necropsy: gross findings,"PO 30 mg/kg, F",none
same,Autonomic,"PO 30 mg/kg, F",none
same,Behavioral,"PO 30 mg/kg, F",none
same,Neurologic,"PO 30 mg/kg, F",none
same,Weigt increase (%),"PO 30 mg/kg, F",6±3%
same,Deaths,"PO 30 mg/kg, M",0/2
same,Necropsy: gross findings,"PO 30 mg/kg, M",none
same,Autonomic,"PO 30 mg/kg, M",none
same,Behavioral,"PO 30 mg/kg, M",none
same,Neurologic,"PO 30 mg/kg, M",none
same,Weigt increase (%),"PO 30 mg/kg, M",18±3%
same,Deaths,"PO 100 mg/kg, F",0/2
same,Necropsy: gross findings,"PO 100 mg/kg, F",none
same,Autonomic,"PO 100 mg/kg, F",none
same,Behavioral,"PO 100 mg/kg, F","Yes: B,C"
same,Neurologic,"PO 100 mg/kg, F",none
same,Weigt increase (%),"PO 100 mg/kg, F",8±1%
same,Deaths,"PO 100 mg/kg, M",0/2
same,Necropsy: gross findings,"PO 100 mg/kg, M",none
same,Autonomic,"PO 100 mg/kg, M",none
same,Behavioral,"PO 100 mg/kg, M","Yes: A,C"
same,Neurologic,"PO 100 mg/kg, M",none
same,Weigt increase (%),"PO 100 mg/kg, M",25±1%
same,Deaths,"PO 300 mg/kg, F",0/2
same,Necropsy: gross findings,"PO 300 mg/kg, F",none
same,Autonomic,"PO 300 mg/kg, F",none
same,Behavioral,"PO 300 mg/kg, F",Yes: A
same,Neurologic,"PO 300 mg/kg, F",none
same,Weigt increase (%),"PO 300 mg/kg, F",7±3%
same,Deaths,"PO 300 mg/kg, M",0/2
same,Necropsy: gross findings,"PO 300 mg/kg, M",none
same,Autonomic,"PO 300 mg/kg, M",none
same,Behavioral,"PO 300 mg/kg, M",Yes: A
same,Neurologic,"PO 300 mg/kg, M",none
same,Weigt increase (%),"PO 300 mg/kg, M",17±0%
same,maximum tolerated single dose,"mouse, oral gavage",> 300 mg/kg
